Reference: patent US11603349B2, “Anti-fibrotic compounds” (Certa Therapeutics Pty Ltd, priority 2017, dated 2023)

Legend:
[1] = MTS tetrazolium reduction cell viability assay; conditions: rat, rat mesangial cells (1097/IRMC cells), TGF-β1 stimulated, CC50 (μM), vs 1% DMSO vehicle
[2] = test system: TGF-β induced [14C]-proline incorporation in rat mesangial cells; assay: [14C]-proline incorporation assay (collagen biosynthesis); type: cell-based; conditions: Rattus norvegicus, Mesangial cell, 44 h
[3] = inhibition of TGF-β1 (1 ng/ml) induced [14C]-proline incorporation, IRMC cells

Row | Compound | CC50 at 48 h [1] [µM] | IC50 [2, 3] [µM] | IC50 [2] [µM]
1 | C#CCOc1ccc(/C=C/C(=O)Nc2ccccc2F)cc1OC [Example 1, (E)-N-(2-fluorophenyl)-3-(3-methoxy-4-(prop-2-yn-1-yloxy)phenyl)acrylamide] | > 300 | 10.9 | 
2 | C#CCOc1ccc(/C=C/C(=O)Nc2ccccc2-c2n[nH]c(C)n2)cc1OC [Example 2, (E)-3-(3-methoxy-4-(prop-2-yn-1-yloxy)phenyl)-N-(2-(5-methyl-1H-1,2,4-triazol-3-yl)phenyl)acrylamide] | > 300 | 10.4 | 
3 | C#CCOc1ccc(/C=C/C(=O)Nc2ccccc2Cl)cc1OC [Example 3, (E)-N-(2-chlorophenyl)-3-(3-methoxy-4-(prop-2-yn-1-yloxy)phenyl)acrylamide] | 71.1 | 3.94 | 
4 | C#CCOc1ccc(/C=C/C(=O)Nc2ccccc2Br)cc1OC [Example 4, (E)-N-(2-bromophenyl)-3-(3-methoxy-4-(prop-2-yn-1-yloxy)phenyl)acrylamide] | 323 | 4.32 | 
5 | C#CCOc1ccc(/C=C/C(=O)Nc2ccccc2C)cc1OC [Example 5, (E)-3-(3-methoxy-4-(prop-2-yn-1-yloxy)phenyl)-N-(o-tolyl)acrylamide] | 369 | 10.6 | 
6 | C#CCOc1ccc(/C=C/C(=O)Nc2ccccc2C#N)cc1OC [Example 6, (E)-N-(2-cyanophenyl)-3-(3-methoxy-4-(prop-2-yn-1-yloxy)phenyl)acrylamide] | > 300 | 11.4 | 
7 | C#CCOc1ccc(/C=C/C(=O)Nc2ccc(Cl)c(Cl)c2)cc1OC [Example 7, (E)-N-(3,4-dichlorophenyl)-3-(3-methoxy-4-(prop-2-yn-1-yloxy)phenyl)acrylamide] | 62.5 | 1.97 | 
8 | C#CCOc1ccc(/C=C/C(=O)Nc2ccccc2)cc1OC [Example 8, (E)-3-(3-methoxy-4-(prop-2-yn-1-yloxy)phenyl)-N-phenylacrylamide] | 109 |  | 5.33
9 | C#CCOc1ccc(/C=C/C(=O)N2CCC(C(=O)OC)c3ccccc32)cc1OC (stereo not shown) [Example 9, methyl (E)-1-(3-(3-methoxy-4-(prop-2-yn-1-yloxy)phenyl)acryloyl)-1,2,3,4-tetrahydroquinoline-4-carboxylate] | 25.5 | 1.94 | 
10 | C#CCOc1ccc(/C=C/C(=O)N2CCCc3ccccc32)cc1OC [Example 10, (E)-1-(3,4-dihydroquinolin-1(2H)-yl)-3-(3-methoxy-4-(prop-2-yn-1-yloxy)phenyl)prop-2-en-1-one] | 66.4 | 6.04 | 
11 | C#CCOc1ccc(/C=C/C(=O)N2CCNc3ccccc32)cc1OC [Example 11, (E)-1-(3,4-dihydroquinoxalin-1(2H)-yl)-3-(3-methoxy-4-(prop-2-yn-1-yloxy)phenyl)prop-2-en-1-one] | 104 | 7.07 | 
12 | C#CCOc1ccc(/C=C/C(=O)N2CCOc3ccccc32)cc1OC [Example 12, (E)-1-(2,3-dihydro-4H-benzo[b][1,4]oxazin-4-yl)-3-(3-methoxy-4-(prop-2-yn-1-yloxy)phenyl)prop-2-en-1-one] | 335 | 10.2 | 
13 | C#CCOc1ccc(/C=C/C(=O)N2CCC(O)c3ccccc32)cc1OC (stereo not shown) [Example 14, (E)-1-(4-hydroxy-3,4-dihydroquinolin-1(2H)-yl)-3-(3-methoxy-4-(prop-2-yn-1-yloxy)phenyl)prop-2-en-1-one] | 48.9 | 10.4 | 
14 | C#CCOc1ccc(/C=C/C(=O)n2nc(O)c3ccccc32)cc1OC [Example 15, (E)-1-(3-hydroxy-1H-indazol-1-yl)-3-(3-methoxy-4-(prop-2-yn-1-yloxy)phenyl)prop-2-en-1-one] | 304 | 25.2 | 
15 | C#CCOc1ccc(/C=C/C(=O)Nc2ccccc2-c2nn[nH]n2)cc1OC [Example 16, (E)-N-(2-(2H-tetrazol-5-yl)phenyl)-3-(3-methoxy-4-(prop-2-yn-1-yloxy)phenyl)acrylamide] | 107 | 22.3 | 
16 | C#CCOc1ccc(/C=C/C(=O)Nc2ccccc2-c2ncon2)cc1OC [Example 17, (E)-N-(2-(1,2,4-oxadiazol-3-yl)phenyl)-3-(3-methoxy-4-(prop-2-yn-1-yloxy)phenyl)acrylamide] | > 300 | 31.6 | 
17 | C#CCOc1ccc(/C=C/C(=O)Nc2ccccc2-c2noc(C)n2)cc1OC [Example 18, (E)-3-(3-methoxy-4-(prop-2-yn-1-yloxy)phenyl)-N-(2-(5-methyl-1,2,4-oxadiazol-3-yl)phenyl)-acrylamide] | 151 | 17.2 | 
18 | C#CCOc1ccc(/C=C/C(=O)Nc2ccccc2-c2noc(=O)[nH]2)cc1OC [Example 19, (E)-3-(3-methoxy-4-(prop-2-yn-1-yloxy)phenyl)-N-(2-(5-oxo-4,5-dihydro-1,2,4-oxadiazol-3-yl)phenyl)acrylamide] | 122 | 19.7 | 

Row | Compound | CC50 at 48 h [1] [µM] | IC50 [2, 3] [µM] | IC50 [2] [µM]
19 | C#CCOc1ccc(/C=C/C(=O)Nc2ccccc2-c2nnco2)cc1OC [Example 21, (E)-N-(2-(1,3,4-oxadiazol-2-yl)phenyl)-3-(3-methoxy-4-(prop-2-yn-1-yloxy)phenyl)acrylamide] | > 300 | 25 | 
20 | C#CCOc1ccc(/C=C/C(=O)Nc2ccccc2-c2cnn(C)c2)cc1OC [Example 22, (E)-3-(3-methoxy-4-(prop-2-yn-1-yloxy)phenyl)-N-(2-(1-methyl-1H-pyrazol-4-yl)phenyl)-acrylamide] | 240 |  | 16.4
21 | C#CCOc1ccc(/C=C/C(=O)Nc2ccccc2-n2cnc(C)n2)cc1OC [Example 23, (E)-3-(3-methoxy-4-(prop-2-yn-1-yloxy)phenyl)-N-(2-(3-methyl-1H-1,2,4-triazol-1-yl)phenyl)acryl-amide] | 104 | 26.3 | 
22 | C#CCOc1ccc(/C=C/C(=O)Nc2ccccc2-c2cn[nH]c2)cc1OC [Example 24, (E)-N-(2-(1H-pyrazol-4-yl)phenyl)-3-(3-methoxy-4-(prop-2-yn-1-yloxy)phenyl)acrylamide] | 41.4 | 13 | 
23 | C#CCOc1ccc(/C=C/C(=O)Nc2ccccc2-c2c[nH]cn2)cc1OC [Example 25, (E)-N-(2-(1H-imidazol-4-yl)phenyl)-3-(3-methoxy-4-(prop-2-yn-1-yloxy)phenyl)acrylamide] | > 300 | 45.5 | 
24 | C#CCOc1ccc(/C=C/C(=O)Nc2ccccc2-c2cn(C)cn2)cc1OC [Example 26, (E)-3-(3-methoxy-4-(prop-2-yn-1-yloxy)phenyl)-N-(2-(1-methyl-1H-imidazol-4-yl)phenyl)acrylamide] | 190 | 13.5 | 
25 | C#CCOc1ccc(/C=C/C(=O)Nc2ccccc2C(=O)NS(C)(=O)=O)cc1OC [Example 27, (E)-2-(3-(3-methoxy-4-(prop-2-yn-1-yloxy)phenyl)acrylamido)-N-(methylsulfonyl)benzamide] | 120 | 21.4 | 
26 | C#CCOc1ccc(/C=C/C(=O)Nc2ccccc2-c2nc(C)no2)cc1OC [Example 28, (E)-3-(3-methoxy-4-(prop-2-yn-1-yloxy)phenyl)-N-(2-(3-methyl-1,2,4-oxadiazol-5-yl)phenyl)acryl-amide] | 146 | 11.6 | 
27 | C#CCOc1ccc(/C=C/C(=O)Nc2ccccc2-c2nnc(C)o2)cc1OC [Example 29, (E)-3-(3-methoxy-4-(prop-2-yn-1-yloxy)phenyl)-N-(2-(5-methyl-1,3,4-oxadiazol-2-yl)phenyl)-acrylamide] | > 300 | 25.6 | 
28 | C#CCOc1ccc(/C=C/C(=O)Nc2ccccc2C(=O)NCCN(C)C)cc1OC [Example 30, (E)-N-(2-(dimethylamino)ethyl)-2-(3-(3-methoxy-4-(prop-2-yn 1 yloxy)phenyl)acrylamido) benzamide] | 37.2 | 11.8 | 
29 | C#CCOc1ccc(/C=C/C(=O)Nc2ccccc2C(=O)Nc2nn[nH]n2)cc1OC [Example 31, (E)-2-(3-(3-methoxy-4-(prop-2-yn-1-yloxy)phenyl)acrylamido)-N-(2H-tetrazol-5-yl)benzamide] | > 300 | 13.9 | 
30 | C#CCOc1ccc(/C=C/C(=O)Nc2ccccc2C(=O)NCCCN(C)C)cc1OC [Example 32, (E)-N-(3-(dimethylamino)propyl)-2-(3-(3-methoxy-4-(prop-2-yn-1-yloxy)phenyl)acrylamido) benzamide] | 32 | 27.4 | 
31 | C#CCOc1ccc(/C=C/C(=O)Nc2ccccc2C(=O)NCCOC)cc1OC [Example 33, (E)-2-(3-(3-methoxy-4-(prop-2-yn-1-yloxy)phenyl)acrylamido)-N-(2-methoxyethyl)benzamide] | 199 | 29.2 | 
32 | C#CCOc1ccc(/C=C/C(=O)Nc2ccccc2C(=O)NCCN2CCN(C)CC2)cc1OC [Example 34, (E)-2-(3-(3-methoxy-4-(prop-2-yn-1-yloxy)phenyl)acrylamido)-N-(2-(4-methylpiperazin-1-yl)ethyl)benzamide] | 37.3 | 28.4 | 
33 | C#CCOc1ccc(/C=C/C(=O)Nc2ccccc2C(=O)NCCN2CCOCC2)cc1OC [Example 35, (E)-2-(3-(3-methoxy-4-(prop-2-yn-1-yloxy)phenyl)acrylamido)-N-(2-morpholinoethyl)benzamide] | 301 | 37.4 | 
34 | C#CCOc1ccc(/C=C/C(=O)Nc2ccccc2C(=O)NC2CCN(C)CC2)cc1OC [Example 36, (E)-2-(3-(3-methoxy-4-(prop-2-yn-1-yloxy)phenyl)acrylamido)-N-(1-methylpiperidin-4-yl)benzamide] | 15.2 | 15.8 | 
35 | C#CCOc1ccc(/C=C/C(=O)Nc2ccccc2C(=O)NCC2CCN(C)CC2)cc1OC [Example 37, (E)-2-(3-(3-methoxy-4-(prop-2-yn-1-yloxy)phenyl)acrylamido)-N-((1-methylpiperidin-4-yl)methyl)benzamide] | 29.2 | 18 | 
